Holding throughout (assay): PapG Luminex ligand binding at equilibrium
Assay [1] has as its target T1, E. coli CFT073 full-length donor strand complemented PapG-II, PapGDSF N96S N286S (Escherichia coli, UniProt A0A0H2VAQ6, N116S/N306S).
T1 construct: mouse IgGK signal peptide, C-terminal 8xHis, ExpiCHO, purified
T1 sequence (A0A0H2VAQ6 with tags, fused parts or gaps N116S/N306S): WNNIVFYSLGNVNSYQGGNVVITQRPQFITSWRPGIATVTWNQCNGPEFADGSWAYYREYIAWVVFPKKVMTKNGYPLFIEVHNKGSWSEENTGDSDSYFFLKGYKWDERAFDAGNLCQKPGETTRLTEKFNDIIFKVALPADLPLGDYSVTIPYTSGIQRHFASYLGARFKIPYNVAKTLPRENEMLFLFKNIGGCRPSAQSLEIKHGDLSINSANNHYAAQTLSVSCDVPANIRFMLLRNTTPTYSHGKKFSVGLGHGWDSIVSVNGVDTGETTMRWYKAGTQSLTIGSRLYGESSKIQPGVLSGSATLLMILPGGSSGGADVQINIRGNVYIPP
To be noted: HEPES pH 7.4, 4° C. overnight. The method, then: (§1) To determine the ability of PapGLD mutants to bind the porcine derived globotetraosyl ceramide ligand GalNAc-Gal-Gal-Glc-ceramide (GbO4), a Luminex ligand binding assay was developed. Surfactant Protein-A (SP-A) was coupled to the surface of MagPlex beads by EDC/NHS, to capture the lipid tail of the globotetraosyl ceramide. The Globotetraosyl ceramide/SP-A beads were incubated with an eight-point threefold titration of PapG in a 96 well flat bottom white plate with final volume of 100 microliters of 50 mM HEPES PH 7.4, 10 mM NaCl, 0.0005% Tween 20 shaking at 300 rpm, 4° C. overnight. After 20-24 hours the ligand binding plates were read on a FlexMap 3D plate reader for measurement of well-bead region specific MFI. Ligand binding equilibrium dissociation constants (Kd) were calculated assuming one site specific binding and interpolated using non-linear curve fitting (GraphPad Prism) as the ligand concentration needed to achieve half-maximal binding. The Luminex derived apparent Kd values are based on approximately fifty bead counts per assay sample.
(§2) To determine Luminex ligand binding affinities of PapG mutants for the synthetic globoside ligand Gal-Glc-phenoxy-octyl-amine (GbO2Mpo), a Luminex ligand binding assay was developed based on the direct coupling of the amine reactive globoside ligand to the EDC/NHS activated carboxylic surface of MagPlex beads. Synthesis of GbO2Mpo ligand with an octyl amine linker (for coupling to beads) was performed via methods described previously. The GbO2Mpo beads were incubated with an 8-point, threefold titration of PapG in a 96-well flat bottom white plate with final volume of 100 μl of 50 mM HEPES pH 7.4, 10 mM NaCl, 0.0005% Tween 20 shaking at 300 rpm, 4° C. overnight. After 20-24 hours the ligand binding plates were read on a FlexMap 3D plate reader for measurement of well-bead region specific MFI.
(§3) Binding of PapG proteins to GbO2 or GbO4 ligands was evaluated using a Luminex platform wherein ligands were coupled to MagPlex beads via surfactant protein A (for […]) or directly using […] conjugation (for […]). This assay was used to rank order binding affinities of the mutants, reported as Kd values interpolated from protein antigen titration curves (Table 7).

Assay [2] deals with T2, E. coli CFT073 PapG-II lectin domain PapGLD variant N96S S89T, SEQ ID NO: 15 (Escherichia coli, UniProt A0A0H2VAQ6, N116S/S109T).
T2 sequence (A0A0H2VAQ6 with tags, fused parts or gaps S109T/N116S): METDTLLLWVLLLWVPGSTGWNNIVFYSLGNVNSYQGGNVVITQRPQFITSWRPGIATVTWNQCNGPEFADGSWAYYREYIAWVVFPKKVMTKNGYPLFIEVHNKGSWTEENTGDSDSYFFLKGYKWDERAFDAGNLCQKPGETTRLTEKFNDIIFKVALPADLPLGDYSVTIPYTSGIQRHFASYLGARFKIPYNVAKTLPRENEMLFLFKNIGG
To be noted: HEPES pH 7.4, 4° C. overnight. The method, then: as §1, §2, §3

Assay [3] concerns the target T3, E. coli CFT073 PapG-II lectin domain PapGLD variant N96S G104A, SEQ ID NO: 16 (Escherichia coli, UniProt A0A0H2VAQ6, G124A/N116S).
T3 sequence (A0A0H2VAQ6 with tags, fused parts or gaps N116S/G124A): T2 sequence (A0A0H2VAQ6 with tags, fused parts or gaps S109T/N116S) with T109S, G124A
Particulars: for Kd: HEPES pH 7.4, 4° C. overnight. The method, then: as §1, §2, §3

Assay [4] addresses T4, E. coli CFT073 PapG-II lectin domain PapGLD variant N96S G75A, SEQ ID NO: 19 (Escherichia coli, UniProt A0A0H2VAQ6, G95A/N116S).
T4 sequence (A0A0H2VAQ6 with tags, fused parts or gaps G95A/N116S): T2 sequence (A0A0H2VAQ6 with tags, fused parts or gaps S109T/N116S) with G95A, T109S
To be noted: HEPES pH 7.4, 4° C. overnight. The method, then:
as §1, §2, §3

The target in assay [5] is T5, E. coli CFT073 PapG-II lectin domain PapGLD variant N96S G18A, SEQ ID NO: 18 (Escherichia coli, UniProt A0A0H2VAQ6, G38A/N116S).
T5 sequence (A0A0H2VAQ6 with tags, fused parts or gaps G38A/N116S): T2 sequence (A0A0H2VAQ6 with tags, fused parts or gaps S109T/N116S) with G38A, T109S
To be noted: HEPES pH 7.4, 4° C. overnight. On the procedure:
as §1, §2, §3

Assay [6] has as its target T6, E. coli CFT073 PapG-II lectin domain PapGLD variant N96S G122A, SEQ ID NO: 20 (Escherichia coli, UniProt A0A0H2VAQ6, G142A/N116S).
T6 sequence (A0A0H2VAQ6 with tags, fused parts or gaps N116S/G142A): T2 sequence (A0A0H2VAQ6 with tags, fused parts or gaps S109T/N116S) with T109S, G142A
To be noted: for Kd: HEPES pH 7.4, 4° C. overnight. The method, then:
as §1, §2, §3

Where [7] appears, read: GbO2Mpo beads, read-out: Kd (GbO2).
Setting [8] is: GbO4 beads, read-out: Kd (GbO4).

Changes are numbered by the printed parent chain. “Also recorded” adds a separate entry of the source. Read-outs that look alike come from different tables or passages of the source.

As a reminder, the Kd is the free concentration of one partner at which half of the binding sites on the other are occupied at equilibrium, for simple one-to-one binding.

Regarding Gal-Glc-phenoxy-octyl-amine [GbO2], the Kd in assay [1] (setting [7]) was 1.6 nM; in assay [2] (setting [7]) it was 1 nM; in assay [3] (setting [7]), over 300 nM; in assay [4] (setting [7]), 2.2 nM; in assay [5] (setting [7]) it was 1.8 nM; in assay [6] (setting [7]) it was 1.4 nM.

As to GalNAc-Gal-Gal-Glc-ceramide [GbO4], the Kd in assay [1] (setting [8]) was 8.8 nM; in assay [2] (setting [8]), under 50 nM; in assay [3] (setting [8]), over 300 nM; in assay [4] (setting [8]) it was over 10 nM; in assay [5] (setting [8]), over 10 nM; in assay [6] (setting [8]), over 300 nM. The results for the “binding to GbO4 (in words)” value in assay [3] and in assay [6] were “lower the binding affinity; also recorded: eliminate ligand binding” and “reduced binding”, respectively.

These data come from patent US20260061042A1, “POLYNUCLEOTIDE COMPOSITIONS AND USES THEREOF” (Pfizer Inc., priority 2024, published 2026).
